Entries after “also recorded” stand apart in the source; their conditions may differ.
Assays:
hA3AR = molecular target: T1, hA3AR (Homo sapiens, UniProt P0DMS8); assay: cAMP functional assay in CHO-A3 cells; conditions: 10 μM
T1 sequence (P0DMS8 1-318): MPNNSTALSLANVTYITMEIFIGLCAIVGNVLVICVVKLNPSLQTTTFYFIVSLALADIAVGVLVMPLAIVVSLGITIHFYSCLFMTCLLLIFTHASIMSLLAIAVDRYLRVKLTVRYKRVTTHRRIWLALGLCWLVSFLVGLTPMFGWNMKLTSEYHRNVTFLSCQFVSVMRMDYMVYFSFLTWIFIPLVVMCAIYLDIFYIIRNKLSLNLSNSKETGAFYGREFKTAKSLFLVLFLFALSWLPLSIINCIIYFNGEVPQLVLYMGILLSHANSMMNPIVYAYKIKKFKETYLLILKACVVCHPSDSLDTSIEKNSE

hA2AAR = hA2AAR (Homo sapiens, UniProt P29274); assay: cAMP functional assay in CHO-A2A cells; conditions: 10 μM
hA2AAR, sequence (P29274 whole entry, canonical isoform): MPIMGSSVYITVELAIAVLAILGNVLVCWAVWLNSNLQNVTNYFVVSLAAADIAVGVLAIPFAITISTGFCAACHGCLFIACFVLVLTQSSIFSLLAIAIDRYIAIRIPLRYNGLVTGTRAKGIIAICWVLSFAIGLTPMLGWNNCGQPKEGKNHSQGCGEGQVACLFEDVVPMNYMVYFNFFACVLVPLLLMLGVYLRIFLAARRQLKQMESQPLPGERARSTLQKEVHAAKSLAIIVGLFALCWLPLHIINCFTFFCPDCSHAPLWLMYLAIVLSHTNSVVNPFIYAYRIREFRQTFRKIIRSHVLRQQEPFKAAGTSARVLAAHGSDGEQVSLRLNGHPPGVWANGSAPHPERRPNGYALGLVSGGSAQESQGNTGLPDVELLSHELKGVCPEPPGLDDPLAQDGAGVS

CYP3A4 = CYP3A4 (Homo sapiens, UniProt P08684); assay: CYP isoform inhibition; format: in vitro ADME
CYP3A4, sequence (P08684 whole entry, species assumed, canonical isoform): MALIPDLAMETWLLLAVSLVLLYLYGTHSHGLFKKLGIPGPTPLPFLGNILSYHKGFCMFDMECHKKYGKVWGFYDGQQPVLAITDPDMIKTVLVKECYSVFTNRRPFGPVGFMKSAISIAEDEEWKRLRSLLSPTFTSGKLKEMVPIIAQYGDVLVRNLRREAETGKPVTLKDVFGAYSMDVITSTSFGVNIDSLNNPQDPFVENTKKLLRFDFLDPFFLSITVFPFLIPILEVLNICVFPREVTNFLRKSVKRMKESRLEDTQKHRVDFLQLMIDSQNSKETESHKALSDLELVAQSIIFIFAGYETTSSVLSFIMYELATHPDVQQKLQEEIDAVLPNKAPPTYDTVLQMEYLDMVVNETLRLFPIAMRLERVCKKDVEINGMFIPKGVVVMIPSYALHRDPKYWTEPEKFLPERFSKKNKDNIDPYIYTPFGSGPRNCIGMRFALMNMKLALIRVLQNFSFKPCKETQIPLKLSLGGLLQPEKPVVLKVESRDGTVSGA

CYP2C9 = CYP2C9 (Homo sapiens, UniProt P11712); assay: CYP isoform inhibition; format: in vitro ADME
CYP2C9, sequence (P11712 whole entry, species assumed, canonical isoform): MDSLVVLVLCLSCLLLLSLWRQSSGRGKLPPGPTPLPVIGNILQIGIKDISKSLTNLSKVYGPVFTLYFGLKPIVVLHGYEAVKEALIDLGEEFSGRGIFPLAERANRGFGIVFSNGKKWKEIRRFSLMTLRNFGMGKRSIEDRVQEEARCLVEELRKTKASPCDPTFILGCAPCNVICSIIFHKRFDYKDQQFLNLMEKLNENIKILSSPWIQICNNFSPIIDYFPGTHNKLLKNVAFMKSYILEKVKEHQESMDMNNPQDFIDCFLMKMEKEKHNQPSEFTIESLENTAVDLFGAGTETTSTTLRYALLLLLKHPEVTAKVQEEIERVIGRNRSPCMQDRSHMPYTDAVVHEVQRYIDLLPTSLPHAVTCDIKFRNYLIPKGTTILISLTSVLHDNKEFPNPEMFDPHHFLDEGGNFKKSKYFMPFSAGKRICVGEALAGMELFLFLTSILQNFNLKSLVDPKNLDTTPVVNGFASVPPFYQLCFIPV

CYP1A2 = molecular target: T2, CYP1A2 (Homo sapiens, UniProt P05177); assay: CYP isoform inhibition; format: in vitro ADME
T2 sequence (P05177 1-516): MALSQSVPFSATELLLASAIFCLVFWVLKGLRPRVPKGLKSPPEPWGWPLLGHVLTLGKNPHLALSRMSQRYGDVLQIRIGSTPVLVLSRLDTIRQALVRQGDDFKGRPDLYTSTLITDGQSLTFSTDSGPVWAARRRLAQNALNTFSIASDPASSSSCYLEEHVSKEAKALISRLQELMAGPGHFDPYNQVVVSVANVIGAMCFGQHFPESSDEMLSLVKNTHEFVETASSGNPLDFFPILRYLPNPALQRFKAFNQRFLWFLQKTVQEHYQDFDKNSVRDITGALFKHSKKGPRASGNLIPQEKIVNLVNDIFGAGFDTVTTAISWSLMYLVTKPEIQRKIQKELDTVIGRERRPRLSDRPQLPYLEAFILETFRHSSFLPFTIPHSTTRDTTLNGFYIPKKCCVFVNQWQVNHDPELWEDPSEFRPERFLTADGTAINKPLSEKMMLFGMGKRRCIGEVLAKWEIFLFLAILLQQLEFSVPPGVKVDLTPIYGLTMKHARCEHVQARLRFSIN

CYP2D6 = CYP2D6 (Homo sapiens, UniProt P10635); assay: CYP isoform inhibition; format: in vitro ADME
CYP2D6, sequence (P10635 whole entry, species assumed, canonical isoform): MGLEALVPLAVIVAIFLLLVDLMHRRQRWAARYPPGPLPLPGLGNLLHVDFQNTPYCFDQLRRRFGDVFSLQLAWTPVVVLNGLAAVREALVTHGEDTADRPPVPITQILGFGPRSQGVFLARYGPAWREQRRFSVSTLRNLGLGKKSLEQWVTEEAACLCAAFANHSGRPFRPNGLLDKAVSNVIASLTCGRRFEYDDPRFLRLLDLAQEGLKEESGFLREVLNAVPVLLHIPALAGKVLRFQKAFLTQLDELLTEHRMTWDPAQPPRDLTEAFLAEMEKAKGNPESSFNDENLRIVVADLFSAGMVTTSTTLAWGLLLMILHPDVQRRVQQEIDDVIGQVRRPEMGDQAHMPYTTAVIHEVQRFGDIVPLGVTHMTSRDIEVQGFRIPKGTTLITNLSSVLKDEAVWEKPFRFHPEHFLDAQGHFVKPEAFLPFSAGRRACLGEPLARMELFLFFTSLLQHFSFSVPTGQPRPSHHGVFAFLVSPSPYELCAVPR

4T1-Luc tumors = assay: In vivo antitumor activity in 4T1-Luc tumor-bearing mice; conditions: 10 mg/kg i.p., alone or with anti-PD-L1
hERG K+ channels = hERG K+ channels (Homo sapiens, UniProt Q12809); assay: hERG K+ channel inhibition; format: in vitro ADME
hERG K+ channels, sequence (Q12809 whole entry, canonical isoform): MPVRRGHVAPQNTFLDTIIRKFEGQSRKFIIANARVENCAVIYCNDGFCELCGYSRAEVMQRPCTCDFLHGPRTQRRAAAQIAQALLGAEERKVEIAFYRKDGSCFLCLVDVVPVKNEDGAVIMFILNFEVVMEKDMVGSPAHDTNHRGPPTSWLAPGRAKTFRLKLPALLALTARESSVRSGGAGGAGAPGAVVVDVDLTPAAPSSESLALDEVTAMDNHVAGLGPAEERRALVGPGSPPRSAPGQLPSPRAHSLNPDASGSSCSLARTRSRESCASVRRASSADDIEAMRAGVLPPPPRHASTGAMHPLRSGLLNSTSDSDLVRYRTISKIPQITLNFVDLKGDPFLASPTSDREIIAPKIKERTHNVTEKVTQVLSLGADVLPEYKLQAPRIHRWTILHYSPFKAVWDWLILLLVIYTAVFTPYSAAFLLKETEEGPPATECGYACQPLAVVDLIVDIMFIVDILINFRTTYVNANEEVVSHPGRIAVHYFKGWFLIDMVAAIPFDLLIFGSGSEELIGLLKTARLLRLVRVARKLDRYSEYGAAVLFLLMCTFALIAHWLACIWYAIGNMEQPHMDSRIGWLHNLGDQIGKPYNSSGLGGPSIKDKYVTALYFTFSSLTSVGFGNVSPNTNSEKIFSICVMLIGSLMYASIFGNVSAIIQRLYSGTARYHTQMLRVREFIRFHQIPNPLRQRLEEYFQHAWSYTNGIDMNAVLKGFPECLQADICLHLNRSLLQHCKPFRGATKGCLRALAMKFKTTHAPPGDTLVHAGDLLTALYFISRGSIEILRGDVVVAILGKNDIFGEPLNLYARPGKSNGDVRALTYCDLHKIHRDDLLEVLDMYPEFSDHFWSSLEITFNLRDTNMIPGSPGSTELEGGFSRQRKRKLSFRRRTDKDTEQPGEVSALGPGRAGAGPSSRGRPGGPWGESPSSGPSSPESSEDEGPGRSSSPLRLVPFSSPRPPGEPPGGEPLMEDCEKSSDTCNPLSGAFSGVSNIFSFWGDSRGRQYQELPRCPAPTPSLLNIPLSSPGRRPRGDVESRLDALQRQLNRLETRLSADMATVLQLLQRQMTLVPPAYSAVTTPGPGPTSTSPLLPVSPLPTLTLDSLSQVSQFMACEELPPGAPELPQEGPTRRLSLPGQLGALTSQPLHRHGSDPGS

CYP2C19 = CYP2C19 (Homo sapiens, UniProt P33261); assay: CYP isoform inhibition; format: in vitro ADME
CYP2C19, sequence (P33261 whole entry, species assumed, canonical isoform): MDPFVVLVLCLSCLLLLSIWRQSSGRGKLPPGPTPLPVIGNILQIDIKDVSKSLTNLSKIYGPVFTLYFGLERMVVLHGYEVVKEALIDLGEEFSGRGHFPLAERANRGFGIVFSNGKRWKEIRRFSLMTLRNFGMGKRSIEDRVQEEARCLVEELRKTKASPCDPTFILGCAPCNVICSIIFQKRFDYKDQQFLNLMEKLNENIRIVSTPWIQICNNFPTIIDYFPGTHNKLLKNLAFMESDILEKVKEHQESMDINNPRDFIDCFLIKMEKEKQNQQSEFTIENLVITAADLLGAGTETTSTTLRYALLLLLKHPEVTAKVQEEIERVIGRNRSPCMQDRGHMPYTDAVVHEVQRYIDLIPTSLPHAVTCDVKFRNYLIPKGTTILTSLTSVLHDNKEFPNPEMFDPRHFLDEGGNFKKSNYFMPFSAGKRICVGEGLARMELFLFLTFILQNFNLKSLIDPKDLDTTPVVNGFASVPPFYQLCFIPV

| hA3AR activation (hA3AR) | receptor activation / antagonism at hA2AAR (hA2AAR) | CYP3A4 inhibition (CYP3A4) | CYP2C9 inhibition (CYP2C9) | CYP1A2 inhibition (CYP1A2) | CYP2D6 inhibition (CYP2D6) | CYP2C19 inhibition (CYP2C19) | Structure (SMILES) | adverse effects / body weight loss (4T1-Luc tumors) | hERG K+ channel inhibition (hERG K+ channels) |
| --- | --- | --- | --- | --- | --- | --- | --- | --- | --- |
| inhibited hA3AR activation | no receptor activation | – | – | – | – | – | CCCCC#Cc1nc(N)c2nc(-c3ccco3)n([C@@H]3OC[C@@H](O)[C@H]3O)c2n1 [5a, (2R,3R,4R)-2-(6-Amino-8-(furan-2-yl)-2-(hex-1-yn-1-yl)-9H-purin-9-yl)tetrahydrofuran-3,4-diol] | – | – |
| – | – | did not significantly inhibit | did not significantly inhibit | did not significantly inhibit | did not significantly inhibit | did not significantly inhibit | CCCCC#Cc1nc(N)c2nc(-c3cccs3)n([C@@H]3OC[C@@H](O)[C@H]3O)c2n1 [5d, (2R,3R,4R)-2-(6-Amino-2-(hex-1-yn-1-yl)-8-(thiophen-2-yl)-9H-purin-9-yl)tetrahydrofuran-3,4-diol] | No adverse effects or body weight loss; also recorded: without any adverse effects and body weight loss | did not significantly inhibit |

Reference: PMC10896643 (Journal of medicinal chemistry, 2023)
